Laboratory results as given in patent US8445492B2, “Method for inhibiting growth of cancer cells and cell telomere and diseases of cell proliferation by using heteroannelated anthraquinone derivative compounds” (National Defense Medical Center, priority 2008, dated 2013).
Like-named read-outs stand apart in the source and are kept apart here.

Key:
[1] = system: HCT-116; assay: NCI DTP in-vitro dose response, Colon Cancer; assay type: cell-based
[2] = system: NCI-H522; details: for TGI: NCI-H522
[3] = system: PC-3; assay: cells; details: Homo sapiens; for GI50: PC-3
[4] = system: OVCAR-8; assay: NCI DTP in-vitro dose response, Ovarian Cancer; assay type: cell-based
[5] = system: SK-MEL-2; assay: NCI DTP in-vitro dose response, Melanoma; assay type: cell-based
[6] = system: HS 578T; assay: NCI DTP in-vitro dose response, Breast Cancer; assay type: cell-based
[7] = system: COLO 205; assay: NCI DTP in-vitro dose response, Colon Cancer; assay type: cell-based
[8] = system: EKVX; details: for TGI: EKVX
[9] = system: UACC-257; assay: NCI DTP in-vitro dose response, Melanoma; assay type: cell-based
[10] = system: MALME-3M; assay: NCI DTP in-vitro dose response, Melanoma; assay type: cell-based
[11] = system: T-47D; assay: NCI DTP in-vitro dose response, Breast Cancer; assay type: cell-based
[12] = system: OVCAR-5; assay: NCI DTP in-vitro dose response, Ovarian Cancer; assay type: cell-based
[13] = system: TK-10; assay: NCI DTP in-vitro dose response, Renal Cancer; assay type: cell-based
[14] = system: 786-0; assay: NCI DTP in-vitro dose response, Renal Cancer; assay type: cell-based
[15] = system: SK-OV-3; assay: NCI DTP in-vitro dose response, Ovarian Cancer; assay type: cell-based
[16] = system: BT-549; assay: NCI DTP in-vitro dose response, Breast Cancer; assay type: cell-based
[17] = system: MOLT-4; assay: cells; details: Homo sapiens; for GI50: MOLT-4
[18] = system: MOLT-4; assay: in vitro test at 1.0×10^−5 M, Blood cancer cell; assay type: cell-based; details: 1.0×10^−5 molal concentration (M)
[19] = system: SK-MEL-2; assay: in vitro test at 1.0×10^−5 M, Skin cancer cell; assay type: cell-based; details: 1.0×10^−5 molal concentration (M)
[20] = system: MALME-3M; assay: in vitro test at 1.0×10^−5 M, Skin cancer cell; assay type: cell-based; details: 1.0×10^−5 molal concentration (M)
[21] = system: MCF7; assay: in vitro test at 1.0×10^−5 M, Breast cancer cell; assay type: cell-based; details: 1.0×10^−5 molal concentration (M)
[22] = system: MDA-MB-435; assay: in vitro test at 1.0×10^−5 M, Breast cancer cell; assay type: cell-based; details: 1.0×10^−5 molal concentration (M)
[23] = system: SN12C; assay: in vitro test at 1.0×10^−5 M, Kidney cancer cell; assay type: cell-based; details: 1.0×10^−5 molal concentration (M)
[24] = system: U251; assay: in vitro test at 1.0×10^−5 M, CNS cancer cell; assay type: cell-based; details: 1.0×10^−5 molal concentration (M)

Compound: O=C1c2ccccc2C(=O)c2c1ccc1nsnc21 [No. 22, Anthra[2,1-c][1,2,5]thiadiazole-6,11-dione]
- TGI ([1]; HCT-116): 1.06E−5
- GI50 ([1]; Homo sapiens, HCT-116): 2.84 µM
- CC50 ([1]; Homo sapiens, HCT-116, read-out: LC50): > 100 µM
- Percent Growth ([1]; Log10 Concentration −4.0): −31%
- Percent Growth ([1]; Log10 Concentration −5.0): 1%
- Percent Growth ([1]; Log10 Concentration −6.0): 91%
- Percent Growth ([1]; Log10 Concentration −7.0): 97%
- Percent Growth ([1]; Log10 Concentration −8.0): 99%
- Percent Growth ([2]; Log10 Concentration −4.0): −18%
- Percent Growth ([2]; Log10 Concentration −5.0): 6%
- Percent Growth ([2]; Log10 Concentration −6.0): 90%
- Percent Growth ([2]; Log10 Concentration −7.0): 103%
- Percent Growth ([2]; Log10 Concentration −8.0): 103%
- TGI [2]: 1.78E−5
- GI50 [3]: 3.03 µM
- CC50 ([3]; PC-3, read-out: LC50): > 100 µM
- GI50 ([4]; Homo sapiens, OVCAR-8): 0.859 µM
- CC50 ([4]; Homo sapiens, OVCAR-8, read-out: LC50): > 100 µM
- Percent Growth ([4]; Log10 Concentration −4.0): −38%
- Percent Growth ([4]; Log10 Concentration −5.0): −43%
- Percent Growth ([4]; Log10 Concentration −6.0): 46%
- Percent Growth ([4]; Log10 Concentration −7.0): 102%
- Percent Growth ([4]; Log10 Concentration −8.0): 105%
- TGI ([4]; OVCAR-8): 3.28E−6
- GI50 ([5]; Homo sapiens, SK-MEL-2): 2.38 µM
- CC50 ([5]; Homo sapiens, SK-MEL-2, read-out: LC50): > 100 µM
- Percent Growth ([5]; Log10 Concentration −4.0): −32%
- Percent Growth ([5]; Log10 Concentration −5.0): −22%
- Percent Growth ([5]; Log10 Concentration −6.0): 94%
- Percent Growth ([5]; Log10 Concentration −7.0): 109%
- Percent Growth ([5]; Log10 Concentration −8.0): 110%
- TGI ([5]; SK-MEL-2): 6.42E−6
- TGI ([6]; HS 578T): >1.00E−4
- GI50 ([6]; Homo sapiens, Hs-578T): 5.03 µM
- CC50 ([6]; Homo sapiens, Hs-578T, read-out: LC50): > 100 µM
- Percent Growth ([6]; Log10 Concentration −4.0): 21%
- Percent Growth ([6]; Log10 Concentration −5.0): 29%
- Percent Growth ([6]; Log10 Concentration −6.0): 100%
- Percent Growth ([6]; Log10 Concentration −7.0): 114%
- Percent Growth ([6]; Log10 Concentration −8.0): 109%
- TGI ([7]; COLO 205): 3.98E−6
- GI50 ([7]; Homo sapiens, COLO 205): 1.97 µM
- CC50 ([7]; Homo sapiens, COLO 205, read-out: LC50): 8.04 µM
- Percent Growth ([7]; Log10 Concentration −4.0): −71%
- Percent Growth ([7]; Log10 Concentration −5.0): −66%
- Percent Growth ([7]; Log10 Concentration −6.0): 98%
- Percent Growth ([7]; Log10 Concentration −7.0): 87%
- Percent Growth ([7]; Log10 Concentration −8.0): 95%
- TGI [8]: 7.03E−6
- Percent Growth ([8]; Log10 Concentration −4.0): −62%
- Percent Growth ([8]; Log10 Concentration −5.0): −15%
- Percent Growth ([8]; Log10 Concentration −6.0): 84%
- Percent Growth ([8]; Log10 Concentration −7.0): 89%
- Percent Growth ([8]; Log10 Concentration −8.0): 96%
- GI50 ([9]; Homo sapiens, UACC-257): 1.48 µM
- CC50 ([9]; Homo sapiens, UACC-257, read-out: LC50): 6.21 µM
- Percent Growth ([9]; Log10 Concentration −4.0): −91%
- Percent Growth ([9]; Log10 Concentration −5.0): −83%
- Percent Growth ([9]; Log10 Concentration −6.0): 77%
- Percent Growth ([9]; Log10 Concentration −7.0): 101%
- Percent Growth ([9]; Log10 Concentration −8.0): 96%
- TGI ([9]; UACC-257): 3.03E−6
- GI50 ([10]; Homo sapiens, Malme-3M): 2.37 µM
- CC50 ([10]; Homo sapiens, Malme-3M, read-out: LC50): 9.55 µM
- Percent Growth ([10]; Log10 Concentration −4.0): −72%
- Percent Growth ([10]; Log10 Concentration −5.0): −53%
- Percent Growth ([10]; Log10 Concentration −6.0): 112%
- Percent Growth ([10]; Log10 Concentration −7.0): 115%
- Percent Growth ([10]; Log10 Concentration −8.0): 102%
- TGI ([10]; MALME-3M): 4.76E−6
- GI50 ([11]; Homo sapiens, T47D): 0.375 µM
- CC50 ([11]; Homo sapiens, T47D, read-out: LC50): 7.79 µM
- Percent Growth ([11]; Log10 Concentration −4.0): −60%
- Percent Growth ([11]; Log10 Concentration −5.0): −59%
- Percent Growth ([11]; Log10 Concentration −6.0): 22%
- Percent Growth ([11]; Log10 Concentration −7.0): 88%
- Percent Growth ([11]; Log10 Concentration −8.0): 91%
- TGI ([11]; T-47D): 1.87E−6
- GI50 ([12]; Homo sapiens, OVCAR-5): 2.18 µM
- CC50 ([12]; Homo sapiens, OVCAR-5, read-out: LC50): 9.06 µM
- Percent Growth ([12]; Log10 Concentration −4.0): −58%
- Percent Growth ([12]; Log10 Concentration −5.0): −57%
- Percent Growth ([12]; Log10 Concentration −6.0): 105%
- Percent Growth ([12]; Log10 Concentration −7.0): 94%
- Percent Growth ([12]; Log10 Concentration −8.0): 99%
- TGI ([12]; OVCAR-5): 4.44E−6
- GI50 ([13]; Homo sapiens, TK-10): 34.9 µM
- CC50 ([13]; Homo sapiens, TK-10, read-out: LC50): > 100 µM
- Percent Growth ([13]; Log10 Concentration −4.0): −7%
- Percent Growth ([13]; Log10 Concentration −5.0): 118%
- Percent Growth ([13]; Log10 Concentration −6.0): 144%
- Percent Growth ([13]; Log10 Concentration −7.0): 133%
- Percent Growth ([13]; Log10 Concentration −8.0): 117%
- TGI ([13]; TK-10): 8.80E−5
- TGI ([14]; 786-0): 1.16E−5
- GI50 ([14]; Homo sapiens, 786-0): 3.93 µM
- CC50 ([14]; Homo sapiens, 786-0, read-out: LC50): 52.7 µM
- Percent Growth ([14]; Log10 Concentration −4.0): −71%
- Percent Growth ([14]; Log10 Concentration −5.0): 5%
- Percent Growth ([14]; Log10 Concentration −6.0): 116%
- Percent Growth ([14]; Log10 Concentration −7.0): 106%
- Percent Growth ([14]; Log10 Concentration −8.0): 105%
- GI50 ([15]; Homo sapiens, SK-OV-3): 2.26 µM
- CC50 ([15]; Homo sapiens, SK-OV-3, read-out: LC50): 23.6 µM
- Percent Growth ([15]; Log10 Concentration −4.0): −97%
- Percent Growth ([15]; Log10 Concentration −5.0): −22%
- Percent Growth ([15]; Log10 Concentration −6.0): 89%
- Percent Growth ([15]; Log10 Concentration −7.0): 90%
- Percent Growth ([15]; Log10 Concentration −8.0): 102%
- TGI ([15]; SK-OV-3): 6.35E−6
- TGI ([16]; BT-549): 3.55E−5
- GI50 ([16]; Homo sapiens, BT-549): 13.1 µM
- CC50 ([16]; Homo sapiens, BT-549, read-out: LC50): 96.2 µM
- Percent Growth ([16]; Log10 Concentration −4.0): −52%
- Percent Growth ([16]; Log10 Concentration −5.0): 64%
- Percent Growth ([16]; Log10 Concentration −6.0): 126%
- Percent Growth ([16]; Log10 Concentration −7.0): 102%
- Percent Growth ([16]; Log10 Concentration −8.0): 92%
- GI50 [17]: 1.59 µM
- CC50 ([17]; MOLT-4, read-out: LC50): > 100 µM

Compound: CCc1nc2ccc3c(c2[nH]1)C(=O)c1ccccc1C3=O [No. 4, 2-Ethyl-1(3)H-anthra[1,2-d]imidazole-6,11-dione]
- Percent Growth ([2]; Log10 Concentration −4.0): 32%
- Percent Growth ([2]; Log10 Concentration −5.0): 54%
- Percent Growth ([2]; Log10 Concentration −6.0): 87%
- Percent Growth ([2]; Log10 Concentration −7.0): 88%
- Percent Growth ([2]; Log10 Concentration −8.0): 89%
- TGI [2]: >1.00E−4
- GI50 [3]: 14.4 µM
- inhibition effect on cancer cell line (Table 2 value) [18]: 64.17
- inhibition effect on cancer cell line (Table 2 value) [19]: 40.07
- TGI [8]: 9.43E−5
- Percent Growth ([8]; Log10 Concentration −5.0): 15%
- Percent Growth ([8]; Log10 Concentration −6.0): 59%
- Percent Growth ([8]; Log10 Concentration −7.0): 82%
- Percent Growth ([8]; Log10 Concentration −8.0): 88%
- inhibition effect on cancer cell line (Table 2 value) [20]: 56.94
- inhibition effect on cancer cell line (Table 2 value) [21]: 69.82
- inhibition effect on cancer cell line (Table 2 value) [22]: 84.39
- inhibition effect on cancer cell line (Table 2 value) [23]: 68.53
- inhibition effect on cancer cell line (Table 2 value) [24]: 60.13
- GI50 [17]: 9.31 µM
